Reference: US20230136297A1, “Methods Of Treating Fabry Disease In Patients Having A Mutation In The GLA Gene” (Amicus Therapeutics, Inc., priority 2020, published 2023)
Residue numbers refer to the chain shown, from its start.

Experiments:
Assay in all cases: α-Gal A activity in lysates of transfected HEK-293 cells ± migalastat (HEK assay)
Type in all cases: cell-based
[1] = target: T1, α-Gal A mutant form Y152N (Homo sapiens, UniProt P06280, Y152N)
T1 construct: expressed in transfected cells; host or cells: HEK-293
T1 sequence (P06280 32-429 Y152N): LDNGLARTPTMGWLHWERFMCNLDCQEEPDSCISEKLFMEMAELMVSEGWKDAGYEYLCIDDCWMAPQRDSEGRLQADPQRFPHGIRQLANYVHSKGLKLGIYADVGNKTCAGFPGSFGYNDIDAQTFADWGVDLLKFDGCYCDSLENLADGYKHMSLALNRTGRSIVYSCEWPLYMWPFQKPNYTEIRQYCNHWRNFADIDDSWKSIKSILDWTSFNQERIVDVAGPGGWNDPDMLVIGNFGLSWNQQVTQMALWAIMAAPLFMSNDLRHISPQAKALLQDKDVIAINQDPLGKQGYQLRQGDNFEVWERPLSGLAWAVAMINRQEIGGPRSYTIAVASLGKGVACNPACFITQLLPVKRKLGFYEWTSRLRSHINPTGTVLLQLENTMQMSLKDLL
Text: (§1) Such mutations or variants are also referred to herein as “HEK assay amenable” mutations or variants.
(§2) The α-Gal A activity is expressed as the nmoles of free 4-MU released per milligram of protein per hour (nmol/mg/hr).

[2] = target: T2, α-Gal A mutant form G271A (Homo sapiens, UniProt P06280, G271A)
T2 construct: expressed in transfected cells; host or cells: HEK-293
T2 sequence (P06280 32-429 G271A): T1 sequence (P06280 32-429 Y152N) with N121Y, G240A
Text: as §1, §2

[3] = target: T3, α-Gal A mutant form G360A (Homo sapiens, UniProt P06280, G360A)
T3 construct: expressed in transfected cells; host or cells: HEK-293
T3 sequence (P06280 32-429 G360A): T1 sequence (P06280 32-429 Y152N) with N121Y, G329A
Text: as §1, §2

[4] = target: T4, α-Gal A mutant form N419D (Homo sapiens, UniProt P06280, N419D)
T4 construct: expressed in transfected cells; host or cells: HEK-293
T4 sequence (P06280 32-429 N419D): T1 sequence (P06280 32-429 Y152N) with N121Y, N388D
Text: as §1, §2

[5] = target: T5, α-Gal A mutant form P259S (Homo sapiens, UniProt P06280, P259S)
T5 construct: expressed in transfected cells; host or cells: HEK-293
T5 sequence (P06280 32-429 P259S): T1 sequence (P06280 32-429 Y152N) with N121Y, P228S
Text: as §1, §2

[6] = 10 μM migalastat minus baseline
[7] = HEK-293 lysates, 10 μM migalastat 5 days, mean ± SEM

Absolute increase (% WT) [1, 6]: 25.9 % WT
Relative increase ([1]; 10 μM migalastat ÷ baseline): 1.97
10 μM migalastat α-Gal A activity [1, 7]: 18554 ± 1297 nmol/mg/h
10 μM migalastat α-Gal A activity (% WT) [1, 7]: 51.6 ± 2.2 % WT
Absolute increase (% WT) [2, 6]: 34.4 % WT
Relative increase ([2]; 10 μM migalastat ÷ baseline): 3.87
10 μM migalastat α-Gal A activity [2, 7]: 18928 ± 1069 nmol/mg/h
10 μM migalastat α-Gal A activity (% WT) [2, 7]: 46.4 ± 1.8 % WT
Absolute increase (% WT) [3, 6]: 7.5 % WT
Relative increase ([3]; 10 μM migalastat ÷ baseline): 1.28
10 μM migalastat α-Gal A activity [3, 7]: 13443 ± 1048 nmol/mg/h
10 μM migalastat α-Gal A activity (% WT) [3, 7]: 31.3 ± 2.6 % WT
Absolute increase (% WT) [4, 6]: 12.6 % WT
Relative increase ([4]; 10 μM migalastat ÷ baseline): 1.37
10 μM migalastat α-Gal A activity [4, 7]: 14558 ± 678 nmol/mg/h
10 μM migalastat α-Gal A activity (% WT) [4, 7]: 44.1 ± 2.9 % WT
Absolute increase (% WT) [5, 6]: 35.5 % WT
Relative increase ([5]; 10 μM migalastat ÷ baseline): 1.86
10 μM migalastat α-Gal A activity [5, 7]: 28621 ± 3141 nmol/mg/h
10 μM migalastat α-Gal A activity (% WT) [5, 7]: 79.8 ± 4.8 % WT
SMILES: OC[C@H]1NC[C@H](O)[C@@H](O)[C@H]1O [migalastat, (2R,3S,4R,5S)-2-(hydroxymethyl) piperdine-3,4,5-triol]
